For 23 molecules, IC50 results are on record in US10543212B2, “Substituted amines for treating cardiac diseases” (Cardurion Pharmaceuticals, LLC, priority 2017, dated 2020).

T1 sequence (Q13557 1-478 isoform Q13557-12): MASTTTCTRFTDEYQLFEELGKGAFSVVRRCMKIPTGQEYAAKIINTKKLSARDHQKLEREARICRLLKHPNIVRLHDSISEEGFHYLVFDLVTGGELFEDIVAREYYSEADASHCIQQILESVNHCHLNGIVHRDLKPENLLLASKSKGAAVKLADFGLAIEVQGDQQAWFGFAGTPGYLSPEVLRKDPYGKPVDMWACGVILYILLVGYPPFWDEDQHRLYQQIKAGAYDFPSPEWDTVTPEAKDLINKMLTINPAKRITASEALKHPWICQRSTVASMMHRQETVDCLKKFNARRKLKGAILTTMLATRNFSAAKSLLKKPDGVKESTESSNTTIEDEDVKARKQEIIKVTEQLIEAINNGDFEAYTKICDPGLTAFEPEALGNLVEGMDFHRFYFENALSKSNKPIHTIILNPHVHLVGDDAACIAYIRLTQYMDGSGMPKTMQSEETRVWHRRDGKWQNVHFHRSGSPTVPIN

One test addresses T1, Full-length, GST-tagged, human CaMKIIδ (Homo sapiens, UniProt Q13557).
T1 construct: Full-Length, Glutathione-S-Transferase(GST)-Tagged, Human CaMKIIδ was purchased from Carna Biosciences; purchased Carna Biosciences 02-111
Nature of the test: CaMKIIδ binding assay (TR-FRET with BODIPY-labeled probe ligand). The following applies: CaMKIIδ binding assay, results of Table 2. Summed up:
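TR-FRET probe-displacement binding: 0.5 nM GST-CaMKIIδ with 10 μg/mL calmodulin, 1 mM CaCl2, 0.21 nM Tb-anti-GST Ab and 300 nM BODIPY probe in HEPES pH 7.6 buffer. Eight-point 4-fold dilutions, 1 hr at room temperature. IC50 from logistic fit; 100% inhibition defined by 3 μM parent compound.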
(In general: TR-FRET usually uses a lanthanide donor and a delayed reading to cut background.)
As usually defined, the IC50 is the point on the concentration scale where inhibition reaches its midpoint. The low end stands for greater potency in that assay, the high end for weaker potency in that assay. `C[C@@H](Cn1cnnn1)Oc1cc(-c2cnc(Nc3cn(C4CCN(CC(F)F)CC4)nc3C(F)(F)F)nc2)ccc1Cl` [Example 485, (S)-5-(3-((1-(1H-tetrazol-1-yl)propan-2-yl)oxy)-4-chlorophenyl)-N-(1-(1-(2,2-difluoroethyl)piperidin-4-yl)-3-(trifluoromethyl)-1H-pyrazol-4-yl)pyrimidin-2-amine] registered a half-inhibitory concentration (IC50) of 10 to 100 nM. On the same count and under the same terms, as for `COc1cc2c(cc1Nc1ncc(-c3ccc(Cl)c(O[C@@H](C)Cn4cnnn4)c3)cn1)CN(C1COC1)CC2` [Example 463, (S)-N-(5-(3-((1-(1H-tetrazol-1-yl)propan-2-yl)oxy)-4-chlorophenyl)pyrimidin-2-yl)-6-methoxy-2-(oxetan-3-yl)-1,2,3,4-tetrahydroisoquinolin-7-amine], the figure is less than 10 nM; as for `COc1cc2c(cc1Nc1ncc(-c3ccc(Cl)c(O[C@@H](C)Cn4cnnn4)c3)cn1)CNCC2` [Example 461, (S)-N-(5-(3-((1-(1H-tetrazol-1-yl)propan-2-yl)oxy)-4-chlorophenyl)pyrimidin-2-yl)-6-methoxy-1,2,3,4-tetrahydroisoquinolin-7-amine], less than 10 nM; as for `C[C@@H](Cn1cnnn1)Oc1cc(-c2cnc(Nc3cn(C4CCN(Cc5cnn(C)c5)CC4)nc3C(F)(F)F)nc2)ccc1Cl` [Example 567, (S)-5-(3-((1-(1H-tetrazol-1-yl)propan-2-yl)oxy)-4-chlorophenyl)-N-(1-(1-((1-methyl-1H-pyrazol-4-yl)methyl)piperidin-4-yl)-3-(trifluoromethyl)-1H-pyrazol-4-yl)pyrimidin-2-amine], less than 10 nM. In the case of `C[C@@H](Cn1cnnn1)Oc1cc(-c2cnc(Nc3cn(C4CCN(Cc5ccccc5)CC4)nc3C(F)(F)F)nc2)ccc1Cl` [Example 548, (S)-5-(3-((1-(1H-tetrazol-1-yl)propan-2-yl)oxy)-4-chlorophenyl)-N-(1-(1-benzylpiperidin-4-yl)-3-(trifluoromethyl)-1H-pyrazol-4-yl)pyrimidin-2-amine], the IC50 is less than 10 nM.

Staying with this test, now noted: CaMKIIδ binding assay; activity class per Table 2.
Molecule `CC(C)c1nn(C2CC3(C2)CN(C2COCOC2)C3)cc1Nc1ncc(-c2ccc(Cl)c(O[C@@H](C)Cn3cnnn3)c2)cn1` [Example 1013, (S)-N-(1-(2-(1,3-dioxan-5-yl)-2-azaspiro[3.3]heptan-6-yl)-3-isopropyl-1H-pyrazol-4-yl)-5-(3-((1-(1H-tetrazol-1-yl)propan-2-yl)oxy)-4-chlorophenyl)pyrimidin-2-amine] displayed an IC50 of less than 10 nM. On to `C[C@@H](Cn1cnnn1)Oc1cc(-c2cnc(Nc3cn(C4CC5(C4)CN(CCC(F)(F)F)C5)nc3OCC(F)(F)F)nc2)ccc1Cl` [Example 998, (S)-5-(3-((1-(1H-tetrazol-1-yl)propan-2-yl)oxy)-4-chlorophenyl)-N-(3-(2,2,2-trifluoroethoxy)-1-(2-(3,3,3-trifluoropropyl)-2-azaspiro[3.3]heptan-6-yl)-1H-pyrazol-4-yl)pyrimidin-2-amine], for which the IC50 was less than 10 nM. The same measure, in the same setting: the result for `C[C@@H](Cn1cnnn1)Oc1cc(-c2cnc(Nc3cn(C4CC5(C4)CN(C4(C)CCOCC4)C5)nc3OCC(F)(F)F)nc2)ccc1Cl` [Example 937, (S)-5-(3-((1-(1H-tetrazol-1-yl)propan-2-yl)oxy)-4-chlorophenyl)-N-(1-(2-(4-methyltetrahydro-2H-pyran-4-yl)-2-azaspiro[3.3]heptan-6-yl)-3-(2,2,2-trifluoroethoxy)-1H-pyrazol-4-yl)pyrimidin-2-amine] reads less than 10 nM.

`C[C@@H](Cn1cnnn1)Oc1cc(-c2cnc(Nc3cn(C4CC5(C4)CN(c4ccccn4)C5)nc3OCC(F)(F)F)nc2)ccc1Cl` [Example 1001, (S)-5-(3-((1-(1H-tetrazol-1-yl)propan-2-yl)oxy)-4-chlorophenyl)-N-(1-(2-(pyridin-2-yl)-2-azaspiro[3.3]heptan-6-yl)-3-(2,2,2-trifluoroethoxy)-1H-pyrazol-4-yl)pyrimidin-2-amine] yielded an IC50 of less than 10 nM.

The test is the same for the next values; noted with them: Table 2; CaMKIIδ binding assay, activity given as class A/B/C.
On to `C[C@@H](Cn1cnnn1)Oc1cc(-c2cnc(Nc3cn([C@H]4CC[C@H](N5CC(C)(O)C5)CC4)nc3C(F)(F)F)nc2)ccc1Cl` [Example 804, 1-(trans-4-(4-((5-(3-(((S)-1-(1H-tetrazol-1-yl)propan-2-yl)oxy)-4-chlorophenyl)pyrimidin-2-yl)amino)-3-(trifluoromethyl)-1H-pyrazol-1-yl)cyclohexyl)-3-methylazetidin-3-ol], for which the IC50 was less than 10 nM. Still for that read-out and setting: as for `C[C@@H](Cn1cnnn1)Oc1cc(-c2cnc(Nc3cn([C@H]4CC[C@@H](N5CCOCC5)CC4)nc3OCC(F)(F)F)nc2)ccc1F` [Example 814, 5-(3-(((S)-1-(1H-tetrazol-1-yl)propan-2-yl)oxy)-4-fluorophenyl)-N-(1-(cis-4-morpholinocyclohexyl)-3-(2,2,2-trifluoroethoxy)-1H-pyrazol-4-yl)pyrimidin-2-amine], the figure is 10 to 100 nM. `C[C@@H](Cn1cnnn1)Oc1cc(-c2cnc(Nc3cn(CC4(O)CCC4)nc3OCC(F)(F)F)nc2)ccc1Cl` [Example 853, (S)-1-((4-((5-(3-((1-(1H-tetrazol-1-yl)propan-2-yl)oxy)-4-chlorophenyl)pyrimidin-2-yl)amino)-3-(2,2,2-trifluoroethoxy)-1H-pyrazol-1-yl)methyl)cyclobutan-1-ol]: the IC50 is less than 10 nM. On the same count and under the same terms, the result for `C[C@@H](Cn1cnnn1)Oc1cc(-c2cnc(Nc3cn(C4CC5(C4)CN(C4COC4)C5)nc3C(F)(F)F)nc2)ccc1Cl` [Example 832, (S)-5-(3-((1-(1H-tetrazol-1-yl)propan-2-yl)oxy)-4-chlorophenyl)-N-(1-(2-(oxetan-3-yl)-2-azaspiro[3.3]heptan-6-yl)-3-(trifluoromethyl)-1H-pyrazol-4-yl)pyrimidin-2-amine] reads less than 10 nM; that for `C[C@@H](Cn1cnnn1)Oc1cc(-c2cnc(Nc3ccnn3-c3ccccc3)nc2)ccc1Cl` [Example 754, (S)-5-(3-((1-(1H-tetrazol-1-yl)propan-2-yl)oxy)-4-chlorophenyl)-N-(1-phenyl-1H-pyrazol-5-yl)pyrimidin-2-amine], 10 to 100 nM; that for `C[C@@H](Cn1cccn1)Oc1cc(-c2cnc(Nc3cn([C@H]4CC[C@H](N5CCOCC5)CC4)nc3OCC(F)(F)F)nc2)ccc1C#N` [Example 798, 2-(((S)-1-(1H-pyrazol-1-yl)propan-2-yl)oxy)-4-(2-((1-(trans-4-morpholinocyclohexyl)-3-(2,2,2-trifluoroethoxy)-1H-pyrazol-4-yl)amino)pyrimidin-5-yl)benzonitrile], less than 10 nM. The same measure, in the same setting: the result for `C[C@@H](Cn1cnnn1)Oc1cc(-c2cnc(Nc3cn(CC4CNC(=O)O4)nc3C(F)(F)F)nc2)ccc1Cl` (stereo partly drawn) [Example 738, 5-((4-((5-(3-(((S)-1-(1H-tetrazol-1-yl)propan-2-yl)oxy)-4-chlorophenyl)pyrimidin-2-yl)amino)-3-(trifluoromethyl)-1H-pyrazol-1-yl)methyl)oxazolidin-2-one] reads less than 10 nM; that for `C[C@H](O)Cn1cc(Nc2ncc(-c3ccc(Cl)c(O[C@@H](C)Cn4cnnn4)c3)cn2)c(OCC(F)(F)F)n1` [Example 833, (S)-1-(4-((5-(3-(((S)-1-(1H-tetrazol-1-yl)propan-2-yl)oxy)-4-chlorophenyl)pyrimidin-2-yl)amino)-3-(2,2,2-trifluoroethoxy)-1H-pyrazol-1-yl)propan-2-ol], less than 10 nM; that for `C[C@@H](Cn1cnnn1)Oc1cc(-c2cnc(Nc3cn([C@H]4C[C@@H](N5CCOCC5)C4)nc3OCC(F)F)nc2)ccc1Cl` [Example 849, (S)-5-(3-((1-(1H-tetrazol-1-yl)propan-2-yl)oxy)-4-chlorophenyl)-N-(3-(2,2-difluoroethoxy)-1-(cis-3-morpholinocyclobutyl)-1H-pyrazol-4-yl)pyrimidin-2-amine], less than 10 nM.

The test is the same for the next values; noted with them: Table 2; activity class for CaMKIIδ.
Consider `COc1cc(N2CCN3CCCC3C2)ccc1Nc1ncc(-c2ccc(Cl)c(O[C@@H](C)Cn3cnnn3)c2)cn1` (stereo partly drawn) [Example 672, 5-(3-(((S)-1-(1H-tetrazol-1-yl)propan-2-yl)oxy)-4-chlorophenyl)-N-(4-(hexahydropyrrolo[1,2-a]pyrazin-2(1H)-yl)-2-methoxyphenyl)pyrimidin-2-amine], for which the IC50 is less than 10 nM.

Consider `C[C@@H](Cn1cnnn1)Oc1cc(-c2cnc(Nc3cn(C4CCOC4)nc3C(F)(F)F)nc2)ccc1Cl` (stereo partly drawn) [Example 644, 5-(3-(((S)-1-(1H-tetrazol-1-yl)propan-2-yl)oxy)-4-chlorophenyl)-N-(1-(tetrahydrofuran-3-yl)-3-(trifluoromethyl)-1H-pyrazol-4-yl)pyrimidin-2-amine], for which the IC50 fell in the range of 10 to 100 nM. Consider `CC(C#N)n1cc(Nc2ncc(-c3ccc(Cl)c(O[C@@H](C)Cn4cnnn4)c3)cn2)c(C(F)(F)F)n1` (stereo partly drawn) [Example 716, 2-(4-((5-(3-(((S)-1-(1H-tetrazol-1-yl)propan-2-yl)oxy)-4-chlorophenyl)pyrimidin-2-yl)amino)-3-(trifluoromethyl)-1H-pyrazol-1-yl)propanenitrile], for which the IC50 was 10 to 100 nM.

For the molecule `C[C@@H](Cn1cnnn1)Oc1cc(-c2cnc(Nc3cn(CC4CCCN(C)C4)nc3C(F)(F)F)nc2)ccc1Cl` (stereo partly drawn) [Example 635, 5-(3-(((S)-1-(1H-tetrazol-1-yl)propan-2-yl)oxy)-4-chlorophenyl)-N-(1-((1-methylpiperidin-3-yl)methyl)-3-(trifluoromethyl)-1H-pyrazol-4-yl)pyrimidin-2-amine], the IC50 fell in the range of 10 to 100 nM. `C#CCn1cc(Nc2ncc(-c3ccc(Cl)c(O[C@@H](C)Cn4cnnn4)c3)cn2)c(C(F)(F)F)n1` [Example 726, (S)-5-(3-((1-(1H-tetrazol-1-yl)propan-2-yl)oxy)-4-chlorophenyl)-N-(1-(prop-2-yn-1-yl)-3-(trifluoromethyl)-1H-pyrazol-4-yl)pyrimidin-2-amine]: the IC50 is 10 to 100 nM.
